According to the supplement of paper PMC11061612:

How the values were obtained:
Assay in all cases: Bliss excess, mean over the matrix (fraction); higher = more synergy
[1] = test system: BC-1 (B-Cell Non-Hodgkin's Lymphoma)
Method in brief: (§1)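 After 24 hours at 37°C and 5% CO2 in 1536-well plates, cells in DMEM/F12 or RPMI plus 10% FBS received two-drug dose matrices for 72 hours. Viability came from CellTiter-Glo 2.0 luminescence and was scaled as inhibition, anchored at 0 by vehicle wells and at 1 by blank wells. Combination Emax is taken as the second-highest inhibition in the matrix, and Bliss excess as the observed combination effect less EA + EB − EA·EB, with EA and EB the single-agent effects.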

[2] = test system: C32 (Melanoma)
Method in brief: as §1

[3] = test system: COR-L105 (Lung Adenocarcinoma)
Method in brief: as §1

[4] = test system: DK-MG (Glioblastoma)
Method in brief: as §1

[5] = test system: Daudi (Burkitt's Lymphoma)
Method in brief: as §1

[6] = test system: GCIY (Gastric Carcinoma)
Method in brief: as §1

[7] = test system: HT-1197 (Bladder Carcinoma)
Method in brief: as §1

[8] = test system: NCI-H1435 (Non-Small Cell Lung Carcinoma)
Method in brief: as §1

[9] = test system: NCI-H1944 (Lung Adenocarcinoma)
Method in brief: as §1

[10] = test system: NCI-H2170 (Squamous Cell Lung Carcinoma)
Method in brief: as §1

[11] = test system: OVKATE (Ovarian Carcinoma)
Method in brief: as §1

[12] = test system: RPMI-8402 (T-Lymphoblastic Leukemia)
Method in brief: as §1

[13] = test system: RS4-11 (B-Lymphoblastic Leukemia)
Method in brief: as §1

[14] = test system: SBC-3 (Small Cell Lung Carcinoma)
Method in brief: as §1

[15] = test system: SBC-5 (Small Cell Lung Carcinoma)
Method in brief: as §1

[16] = test system: SCC90 (Head and Neck Carcinoma)
Method in brief: as §1

[17] = test system: SK-N-DZ (Neuroblastoma)
Method in brief: as §1

[18] = test system: SNU-1 (Gastric Carcinoma)
Method in brief: as §1

[19] = test system: SUP-HD1 (Hodgkin's Lymphoma)
Method in brief: as §1

[20] = test system: SW1463 (Colorectal Carcinoma)
Method in brief: as §1

Structure (SMILES)	Bliss excess [1]	Bliss excess [2]	Bliss excess [3]	Bliss excess [4]	Bliss excess [5]	Bliss excess [6]	Bliss excess [7]	Bliss excess [8]	Bliss excess [9]	Bliss excess [10]	Bliss excess [11]	Bliss excess [12]	Bliss excess [13]	Bliss excess [14]	Bliss excess [15]	Bliss excess [16]	Bliss excess [17]	Bliss excess [18]	Bliss excess [19]	Bliss excess [20]
COc1nnc2ccc(N3CCC(c4ccc(OCCN5CCN(C)C(=O)[C@H]5C)cc4)CC3)nn12 [AZD5153] + Cc1c2c(nn1C)CSCc1cc(n(C)n1)CSc1cc(c3ccccc3c1)OCCCc1c(C(=O)O)n(C)c3c-2c(Cl)ccc13 [AZD5991] (first compound max 1 µM, 7x7, partner max 1 µM)	-0.0202	0.142	-0.0134	-0.0037	0.0407	-0.0727	0.0698	-0.0108	-0.0461	-0.0283	-0.0209	0.0279	0.0102	-0.0503	-0.0062	0.0814	-0.0117	0.0194	-0.0414	-0.0631
COc1cccc2c1C(=O)c1c(O)c3c(c(O)c1C2=O)C[C@@](O)(C(=O)CO)C[C@@H]3O[C@H]1C[C@H](N)[C@H](O)[C@H](C)O1 [Doxorubicin] + Cc1cc2ncnn2cc1Nc1ncc2c(n1)n(C1CCOCC1)c(=O)n2C [AZD7648] (first compound max 1 µM, 7x7, partner max 10 µM)	0.094	0.044	0.022	0.0299	0.0985	0.0606	0.0022	0.0002	0.0739	0.0706	-0.0594	0.0782	0.171	0.0553	0.0341	-0.0226	0.112	0.0667	0.0727	-0.0363
CCN(CCO)CCCOc1ccc2c(Nc3cc(CC(=O)Nc4cccc(F)c4)[nH]n3)ncnc2c1 [AZD2811] + C[C@@H]1COCCN1C2=NC(=NC(=C2)C3(CC3)[S@](=N)(=O)C)C4=C5C=CNC5=NC=C4 [AZD6738] (first compound max 1 µM, 7x7, partner max 10 µM)	-0.1	-0.0803	-0.0679	-0.0146	0.0457	-0.0326	-0.0441	-0.0311	-0.0415	-0.0191	-0.0822	-0.0312	0.0023	-0.0369	-0.0236	0.019	-0.0507	0.0129	0.0391	-0.0218
CN(CCO)CC[C@H](CSc1ccccc1)Nc1ccc(S(=O)(=O)NC(=O)c2ccc(N3CCC([C@@H](O)c4ccccc4-c4ccc(Cl)cc4)CC3)cc2)cc1S(=O)(=O)C(F)(F)F [AZD4320] + C1CN(CCC1(C(=O)N[C@@H](CCO)C2=CC=C(C=C2)Cl)N)C3=NC=NC4=C3C=CN4 [Capivasertib] (first compound max 1 µM, 7x7, partner max 3 µM)	-0.0342	-0.0564	-0.0378	-0.0847	-0.0512	0.0298	0.0311	0.0003	-0.0508	-0.023	-0.0775	0.0394	0.0024	-0.0793	-0.0207	-0.0306	-0.0417	-0.0441	-0.022	-0.0497
CN(C)CCCOc1ccc(-c2ccc3ncc4c(c3c2)n(C2CCOCC2)c(=O)n4C)cn1 [AZD0156] + C=CCn1c(=O)c2cnc(Nc3ccc(N4CCN(C)CC4)cc3)nc2n1-c1cccc(C(C)(C)O)n1 [AZD1775] (first compound max 1 µM, partner max 1 µM)	-0.0006	-0.0348	-0.0414	-0.0003	-0.0243	-0.0428	-0.102	-0.0201	-0.0218	0.0914	-0.0601	0.0026	-0.0405	-0.0451	-0.018	-0.0542	-0.0179	-0.003	-0.0392	-0.0323
C=CCn1c(=O)c2cnc(Nc3ccc(N4CCN(C)CC4)cc3)nc2n1-c1cccc(C(C)(C)O)n1 [AZD1775] + O=C(c1cc(Cc2n[nH]c(=O)c3ccccc23)ccc1F)N1CCN(C(=O)C2CC2)CC1 [Olaparib] (first compound max 1 µM, partner max 10 µM)	-0.0326	-0.0271	-0.0881	-0.054	0.0043	-0.0521	-0.0023	0.0211	-0.043	-0.008	-0.0316	0.0113	-0.0192	0.0028	-0.0435	-0.0686	-0.0122	-0.0425	-0.0346	-0.0418
COc1nnc2ccc(N3CCC(c4ccc(OCCN5CCN(C)C(=O)[C@H]5C)cc4)CC3)nn12 [AZD5153] + CCN(CCO)CCCOc1ccc2c(Nc3cc(CC(=O)Nc4cccc(F)c4)[nH]n3)ncnc2c1 [AZD2811] (first compound max 1 µM, 7x7, partner max 1 µM)	-0.0313	0.0199	-0.0092	-0.13	0.0303	-0.0388	-0.0034	0.0052	-0.0185	0.0103	-0.0668	-0.031	-0.0195	-0.0225	-0.0286	-0.0547	-0.0722	0.0024	-0.0586	-0.0452
CN(CCO)CC[C@H](CSc1ccccc1)Nc1ccc(S(=O)(=O)NC(=O)c2ccc(N3CCC([C@@H](O)c4ccccc4-c4ccc(Cl)cc4)CC3)cc2)cc1S(=O)(=O)C(F)(F)F [AZD4320] + CN(C)CCCOc1ccc(-c2ccc3ncc4c(c3c2)n(C2CCOCC2)c(=O)n4C)cn1 [AZD0156] (first compound max 1 µM, 7x7, partner max 1 µM)	-0.0228	-0.0182	-0.031	-0.0539	-0.0133	0.0237	-0.0506	-0.0269	-0.0289	-0.0054	-0.104	0.0188	-0.0209	-0.0809	-0.0481	0.0037	0.0238	0.0192	-0.0754	-0.06
CC(=O)c1c(C)c2cnc(Nc3ccc(N4CCNCC4)cn3)nc2n(C2CCCC2)c1=O [Palbociclib] + CC1(C)CCC(CN2CCN(c3ccc(C(=O)NS(=O)(=O)c4ccc(NCC5CCOCC5)c([N+](=O)[O-])c4)c(Oc4cnc5[nH]ccc5c4)c3)CC2)=C(c2ccc(Cl)cc2)C1 [Venetoclax] (first compound max 10 µM, 7x7, partner max 1 µM)	-0.0747	-0.0322	-0.0399	0.0131	0.0137	-0.0391	-0.042	-0.0191	0.0257	0.0227	-0.0484	-0.0777	0.0385	-0.038	0.0178	-0.0435	0.0824	0.0006	-0.0641	-0.0899
CC(=O)c1c(C)c2cnc(Nc3ccc(N4CCNCC4)cn3)nc2n(C2CCCC2)c1=O [Palbociclib] + Cn1cnc2c(F)c(Nc3ccc(Br)cc3Cl)c(C(=O)NOCCO)cc21 [Selumetinib] (first compound max 10 µM, 7x7, partner max 10 µM)	0.0124	-0.0086	-0.0355	-0.0133	-0.0641	0.0351	-0.0257	-0.0105	-0.0022	-0.0284	-0.0378	-0.0374	-0.0881	-0.0396	0.0396	-0.0058	-0.0848	0.067	-0.0414	0.0128
Cc1c2c(nn1C)CSCc1cc(n(C)n1)CSc1cc(c3ccccc3c1)OCCCc1c(C(=O)O)n(C)c3c-2c(Cl)ccc13 [AZD5991] + Cn1cnc2c(F)c(Nc3ccc(Br)cc3Cl)c(C(=O)NOCCO)cc21 [Selumetinib] (first compound max 1 µM, 7x7, partner max 3 µM)	0.012	0.0678	-0.0263	0.0143	0.0545	-0.0633	-0.0375	0.0727	0.027	-0.0377	-0.0724	0.0125	0.0021	-0.0674	0	0.0581	0.018	0.0926	-0.011	-0.0352
Cn1cnc2c(F)c(Nc3ccc(Br)cc3Cl)c(C(=O)NOCCO)cc21 [Selumetinib] + CCN(CCO)CCCOc1ccc2c(Nc3cc(CC(=O)Nc4cccc(F)c4)[nH]n3)ncnc2c1 [AZD2811] (first compound max 10 µM, 7x7, partner max 1 µM)	0.0349	0.0124	0.0147	-0.0736	0.0504	-0.0127	-0.0073	-0.0112	0.068	-0.0566	-0.0349	0.0136	-0.0367	-0.0518	-0.0253	0.0116	-0.0764	0.0767	0.0251	0.0162
